Experimental data reported in patent US20060035927A1, “Calcilytic compounds” (SmithKline Beecham Corporation, priority 1999, published 2006).
Structures can show the parent of a compound that is named as a salt.

How the values were obtained:
[1] = Ovariectomized rat Study 1: circulating compound levels (LC/MS/MS); type: in vivo; conditions: Study 1, plasma, after oral administration
Source text: (§1) Seven month old virgin Sprague Dawley female rats were subjected to bilateral ovariectomy or sham surgery and the animals then held for a period of three months to allow the development of osteopenia. At that time a single sham group (n=10) and three groups of ovariectomized (ovx) animals (n=10-14) were assigned. The ovx groups were selected such that there was no significant difference in bone mineral density (“BMD”) of the lumbar spine, proximal tibia or distal femur between groups. Groups consisted of sham and ovx controls treated with dose vehicle (20% aqueous encapsin) and ovx groups treated with either N-[(2R-Hydroxy-3-[(3-chloro-2-cyano)phenoxy-propyl]-1,1-dimethyl-2-(2-naphthyl)ethyl amine hydrochloride (“calcilytic administered”) ([…] body weight daily p.o.) or rat PTH 1-34 (5 ug/kg body weight daily s.c.).
Timed plasma samples were collected relative to administration of compound or PTH. PTH 1-34 was measured by RIA (Nichols Institute Diagnostics, San Juan Capistrano, Calif.). The concentrations of compound in the plasma were quantified by LC/MS/MS (limit of detection 10 ng/ml).

osteopenic ovx rats [2] = experiment: Ovariectomized rat Study 2: calcilytic plus/minus 17β estradiol, histology and histomorphometry of proximal tibia; type: in vivo; conditions: Study 2, proximal tibia, static histomorphometry, vs ovx group
Procedure: Animals were prepared and monitored as described above. […] Dosing continued for 5 weeks at which point the animals were sacrificed and the tibiae were collected for histological analysis. Bone samples were dehydrated through increasing concentrations of ethanol, defatted in acetone and embedded in methyl methacrylate (Polysciences, Inc., Warrington, Pa.). Longitudinal undecalcified sections (5 μm) sections of the proximal tibial were cut on a Leica microtome (S[…]); the tissue blocks had been prestained with Villanueva stain. Histomorphometric analysis was carried out using an Osteomeasure system (OsteoMetrics Incorpotated), without knowledge of group allocation. Measurements within the tibial metaphysis were restricted to a mean tissue area of approximately 8 mm^2 beginning 1 mm below the growth plate. Primary measurements included area of bone and marrow (mm^2), bone area (mm^2), perimeter of bone (mm), single and double-labelled perimeter (sL.Pm, dL.Pm, m), osteoid perimeter (O.Pm, m) and eroded perimeter (Er.P, m). […] Statistical analysis was assessed by a two sided t-test.

osteoblasts = experiment: Toxicity in vitro in osteoblast assays; type: cell-based, human; conditions: 10 uM concentration
Procedure: (§2) cAMP accumulation was measured in both human TF274 osteoblastic cells (derived by immortalization of human bone marrow stromal cells) see James, supra, and primary human osteoblasts derived from explants of trabecular bone as described in Beresford, Biochim. Biophys. Acta, Vol. 801, pp. 58-65 ([…]). cAMP levels in cell samples were measured using a non-radioactive protocol (Amersham kit). Alkaline phosphatase activity was determined using the standard colorimetric method as described previously in Gowen, Arth. Rheum., Vol. 31, pp. 1500-1507 (1988). N-[(2R-Hydroxy-3-[(3-chloro-2-cyano)phenoxy-propyl]-1,1-dimethyl-2-(2-naphthyl)ethyl amine hydrochloride was tested at 0.1, 1 and 10 uM. PTH 40 ng/ml was used as a positive control.

osteopenic ovx rats [3] = experiment: Ovariectomized rat Study 1: bone mineral density by DXA; type: in vivo; conditions: Study 1, ovx rats, 100 mmol/kg body weight daily p.o., eight weeks of dosing
Source text: as §1
(§3) During the study blood samples were drawn for determination of circulating PTH and osteocalcin. BMD was determined by DXA (QDR4500 Hologic, Waltham, Mass.) prior to treatment and at weeks 4 and 8. At term tibiae were removed for histological analysis. All animals received tetracycline 10 and 3 days prior to the start of dosing and calcein (10 mg/kg) 10 and 3 days prior to sacrifice.

osteopenic ovx rats [4] = experiment: Ovariectomized rat Study 1: dynamic histomorphometry of proximal tibia; type: in vivo
Source text: as §1, §3
Bone samples were dehydrated through increasing concentrations of ethanol, defatted in acetone and embedded in methyl methacrylate (Polysciences, Inc., Warrington, Pa.). Longitudinal undecalcified sections (5 μm) sections of the proximal tibial were cut on a Leica microtome (SM2500S); the tissue blocks had been prestained with Villanueva stain. Histomorphometric analysis was carried out using an Osteomeasure system (OsteoMetrics Incorpotated), without knowledge of group allocation. Measurements within the tibial metaphysis were restricted to a mean tissue area of approximately 8 mm^2 beginning 1 mm below the growth plate. Primary measurements included area of bone and marrow (mm^2), bone area (mm^2), perimeter of bone (mm), single and double-labelled perimeter (sL.Pm, dL.Pm, m), osteoid perimeter (O.Pm, m) and eroded perimeter (Er.P, m). Derived indices included trabecular bone volume (% Tb.Ar), trabecular number (Th.N, mm^−1), trabecular thickness (Th.Th, μm), trabecular separation (Th.Sp, μm), bone formation rate, surface referent (BFR/Tb.Pm, μm^3/μm^2/year), BFR/Tb.Ar (bone area referent, %/year), BFR/B.Ar (tissue referent, %/year) and mineral apposition rate (MAR, μm/day), and percent labelled perimeter (% Lp). Statistical analysis was assessed by a two sided t-test.

human osteoclasts = experiment: Human osteoclast-mediated bone resorption assay; type: cell-based; conditions: concentrations up to 3 uM, 24 hours
Procedure: The isolation of disaggregated human osteoclasts from fresh osteoclastoma tissue and the in vitro human osteoclast resorption assay were performed according to James, J. Bone Min. Res., Vol. 11, pp. 1453-1460. Briefly, human osteoclasts were seeded onto bovine cortical bone particles with compound or vehicle for 24 hours at 37° C. The culture media were then removed and the levels of the carboxy-terminal peptide of the α1 chain of human type I collagen were quantified as a biochemical readout of resorption, using a competitive binding enzyme linked immunosorbant assay (ELISA) (19) (Osteometer A/S, Rodovre, Denmark). The results are expressed as percent inhibition of resorption compared to supernatants derived from osteoclasts cultured in vehicle without inhibitor. IC50 values are determined from the resultant dose response curves.

TF274 cells = experiment: Osteoblast alkaline phosphatase activity; type: cell-based, human; conditions: compound 0.1, 1 and 10 uM
Procedure: as §2

[5] = Study 1, proximal tibia, vs ovx control, calcilytic 100 mmol/kg p.o. or PTH 5 ug/kg s.c. daily

For `CC(C)(Cc1ccc2ccccc2c1)NC[C@@H](O)COc1cccc(Cl)c1C#N` [N-[(2R-Hydroxy-3-[(3-chloro-2-cyano)phenoxy-propyl]-1,1-dimethyl-2-(2-naphthyl)ethylamine hydrochloride], the “sustained exposure to compound (circulating levels)” value [1] was “elevated for up to eight hours”, the “% trabecular area (% Tb.Ar.) / ovx-induced bone loss” value (osteopenic ovx rats [2]) was “no effect” and the toxicity in vitro (osteoblasts) was “some toxicity”. The “bone mass (BMD; lumbar spine, distal femur, proximal tibia)” value (osteopenic ovx rats [3]) was “unaffected”, the “bone formation and resorption, net bone gain or loss” value (osteopenic ovx rats [4]; Study 1, overall outcome) was “dramatic increase in both bone formation and resorption, with no net bone gain or loss” and the “bone turnover, BFR/B.Ar.” value (osteopenic ovx rats [4]; Study 1, proximal tibia, compared with PTH and ovx control groups) was “dramatic increase”. For the same compound, the “bone resorption, % eroded perimeter” value (osteopenic ovx rats [4]; Study 1, proximal tibia, vs PTH or ovx control groups) was “significantly higher”, the “bone formation: % labeled perimeter (% L.Pm.)” value (osteopenic ovx rats [4]; [5]) was “elevated above the ovx control level” and the “bone formation: % osteoid perimeter (% Os.Pm)” value (osteopenic ovx rats [4]; [5]) was “elevated above the ovx control level”. The “effect on human osteoclast mediated bone resorption” value (human osteoclasts) was “no effect”, the alkaline phosphatase activity (TF274 cells) was “did not result in any change” and the PTH-induced alkaline phosphatase (TF274 cells; PTH 40 ng/ml) was “nor was PTH-induced alkaline phosphatase affected”.
